# Measurements published in PubChem BioAssay AID1259407 (Chemical Carcinogenesis Research Information System (CCRIS), 2018).
# Calls of active or inactive are those of the source. How the calls were made is not given here.
# Test system: CCRIS mutagenicity, Ames/micronucleus/aberration tests
# Test: CCRIS mutagenicity studies
# [1] = Test System: AMES SALMONELLA TYPHIMURIUM, Strain/Indicator: TA98, Metabolic Activation: HAMSTER, LIVER, S-9, AROCLOR 1254 (10%), Method: PREINCUBATION
# [2] = Test System: AMES SALMONELLA TYPHIMURIUM, Strain/Indicator: TA98, Metabolic Activation: NONE, Method: PREINCUBATION
# [3] = Test System: AMES SALMONELLA TYPHIMURIUM, Strain/Indicator: TA98, Metabolic Activation: RAT, LIVER, S-9, AROCLOR 1254 (10%), Method: PREINCUBATION
# [4] = Test System: AMES SALMONELLA TYPHIMURIUM, Strain/Indicator: TA100, Metabolic Activation: HAMSTER, LIVER, S-9, AROCLOR 1254 (10%), Method: PREINCUBATION
# [5] = Test System: AMES SALMONELLA TYPHIMURIUM, Strain/Indicator: TA100, Metabolic Activation: NONE, Method: PREINCUBATION
# [6] = Test System: AMES SALMONELLA TYPHIMURIUM, Strain/Indicator: TA100, Metabolic Activation: RAT, LIVER, S-9, AROCLOR 1254 (10%), Method: PREINCUBATION
# [7] = Test System: AMES SALMONELLA TYPHIMURIUM, Strain/Indicator: TA1535, Metabolic Activation: HAMSTER, LIVER, S-9, AROCLOR 1254 (10%), Method: PREINCUBATION
# [8] = Test System: AMES SALMONELLA TYPHIMURIUM, Strain/Indicator: TA1535, Metabolic Activation: NONE, Method: PREINCUBATION
# [9] = Test System: AMES SALMONELLA TYPHIMURIUM, Strain/Indicator: TA1535, Metabolic Activation: RAT, LIVER, S-9, AROCLOR 1254 (10%), Method: PREINCUBATION
# [10] = Test System: AMES SALMONELLA TYPHIMURIUM, Strain/Indicator: TA1537, Metabolic Activation: HAMSTER, LIVER, S-9, AROCLOR 1254 (10%), Method: PREINCUBATION
# [11] = Test System: AMES SALMONELLA TYPHIMURIUM, Strain/Indicator: TA1537, Metabolic Activation: NONE, Method: PREINCUBATION
# [12] = Test System: AMES SALMONELLA TYPHIMURIUM, Strain/Indicator: TA1537, Metabolic Activation: RAT, LIVER, S-9, AROCLOR 1254 (10%), Method: PREINCUBATION
SMILES,mutagenic call [1],mutagenic call [2],mutagenic call [3],mutagenic call [4],mutagenic call [5],mutagenic call [6],mutagenic call [7],mutagenic call [8],mutagenic call [9],mutagenic call [10],mutagenic call [11],mutagenic call [12],further results
c1ccsc1,inactive; negative,inactive; negative,inactive; negative,inactive; negative,inactive; negative,inactive; negative,inactive; negative,inactive; negative,inactive; negative,inactive; negative,inactive; negative,inactive; negative,"mutagenic call (Test System: AMES SALMONELLA TYPHIMURIUM, Strain/Indicator: TA97, Metabolic Activation: HAMSTER, LIVER, AROCLOR 1254 (10%), Method: PREINCUBATION): inactive; negative; mutagenic call (Test System: AMES SALMONELLA TYPHIMURIUM, Strain/Indicator: TA97, Metabolic Activation: HAMSTER, LIVER, S-9, AROCLOR 1254 (30%), Method: PREINCUBATION): inactive; negative; mutagenic call (Test System: AMES SALMONELLA TYPHIMURIUM, Strain/Indicator: TA97, Metabolic Activation: NONE, Method: PREINCUBATION): inactive; negative; mutagenic call (Test System: AMES SALMONELLA TYPHIMURIUM, Strain/Indicator: TA97, Metabolic Activation: RAT, LIVER, S-9, AROCLOR 1254 (10%), Method: PREINCUBATION): inactive; negative; mutagenic call (Test System: AMES SALMONELLA TYPHIMURIUM, Strain/Indicator: TA97, Metabolic Activation: RAT, LIVER, S-9, AROCLOR 1254 (30%), Method: PREINCUBATION): inactive; negative; mutagenic call (Test System: AMES SALMONELLA TYPHIMURIUM, Strain/Indicator: TA98, Metabolic Activation: HAMSTER, LIVER, S-9, AROCLOR 1254 (30%), Method: PREINCUBATION): inactive; negative; mutagenic call (Test System: AMES SALMONELLA TYPHIMURIUM, Strain/Indicator: TA98, Metabolic Activation: RAT, LIVER, S-9, AROCLOR 1254 (30%), Method: PREINCUBATION): inactive; negative; mutagenic call (Test System: AMES SALMONELLA TYPHIMURIUM, Strain/Indicator: TA98, Metabolic Activation: RAT, LIVER, S-9, AROCLOR 1254, Method: PREINCUBATION): inactive; negative; mutagenic call (Test System: AMES SALMONELLA TYPHIMURIUM, Strain/Indicator: TA100, Metabolic Activation: HAMSTER, LIVER, S-9, AROCLOR 1254 (30%), Method: PREINCUBATION): inactive; negative; mutagenic call (Test System: AMES SALMONELLA TYPHIMURIUM, Strain/Indicator: TA100, Metabolic Activation: RAT, LIVER, S-9, AROCLOR 1254 (30%), Method: PREINCUBATION): inactive; negative; mutagenic call (Test System: AMES SALMONELLA TYPHIMURIUM, Strain/Indicator: TA100, Metabolic Activation: RAT, LIVER, S-9, AROCLOR 1254, Method: PREINCUBATION): inactive; negative; mutagenic call (Test System: AMES SALMONELLA TYPHIMURIUM, Strain/Indicator: TA102, Metabolic Activation: NONE, Method: PREINCUBATION): inactive; negative; mutagenic call (Test System: AMES SALMONELLA TYPHIMURIUM, Strain/Indicator: TA102, Metabolic Activation: RAT, LIVER, S-9, AROCLOR 1254, Method: PREINCUBATION): inactive; negative; mutagenic call (Test System: AMES SALMONELLA TYPHIMURIUM, Strain/Indicator: TA1535, Metabolic Activation: HAMSTER, LIVER, S-9, AROCLOR 1254 (30%), Method: PREINCUBATION): inactive; negative; mutagenic call (Test System: AMES SALMONELLA TYPHIMURIUM, Strain/Indicator: TA1535, Metabolic Activation: RAT, LIVER, S-9, AROCLOR 1254 (30%), Method: PREINCUBATION): inactive; negative; mutagenic call (Test System: Mouse lymphoma, Strain/Indicator: L5178Y (tk+/tk-), Metabolic Activation: None, Method: Suspension/plate): active; positive; mutagenic call (Test System: Mouse lymphoma, Strain/Indicator: L5178Y (tk+/tk-), Metabolic Activation: Rat, Liver, S-9, Aroclor 1254, Method: Suspension/plate): active; inconclusive (previous evaluation positive)"
CCCCC(=O)Nc1snc2ccc(Cl)cc12,,,,,,,,,,,,,"mutagenic call (Test System: AMES SALMONELLA TYPHIMURIUM, Strain/Indicator: TA100, Metabolic Activation: NONE, Method: STANDARD PLATE): inactive; negative; mutagenic call (Test System: AMES SALMONELLA TYPHIMURIUM, Strain/Indicator: TA100, Metabolic Activation: S-9, Method: STANDARD PLATE): inactive; negative; mutagenic call (Test System: AMES SALMONELLA TYPHIMURIUM, Strain/Indicator: TA1537, Metabolic Activation: NONE, Method: STANDARD PLATE): inactive; negative; mutagenic call (Test System: AMES SALMONELLA TYPHIMURIUM, Strain/Indicator: TA1537, Metabolic Activation: S-9, Method: STANDARD PLATE): inactive; negative"
Oc1ccc(Cl)cc1Cc1ccccc1,inactive; negative,inactive; negative,inactive; negative,inactive; negative,inactive; negative,inactive; negative,inactive; negative,inactive; negative,inactive; negative,inactive; negative,inactive; negative,inactive; negative,
